The target of assay [1] is T1, human SK4 (Homo sapiens, UniProt O15554).
T1 construct: expressed in transfected cells; host or cells: CHO cells
The assay can be described thus: Whole-cell patch-clamp of WT SK4 K+ currents in transfected CHO cells. Format: cell-based. The settings on record: 10 μM. (In general: In patch-clamp work, channel activity is measured electrically.)

For assay [2], the target named is T1, human SK4. Described as above. In kind it is cell-based. The settings on record: WT SK4 currents in absence and presence of 20 μM compound. The method, then: Constructs: For CHO cell transfection, the following were cloned: human SK1, rat SK2, human SK3, and rat calmodulin into the pcDNA3 vector, human SK4 into pEGFP-C1 vector, and PIP4,5-kinase into an IRES-dsRed plasmid. The mutations were introduced using the PCR-based QuikChange™ site-directed mutagenesis (Stratagene®) and were verified by full sequencing of the entire plasmid vector.
Cell Culture and Transfection: Chinese hamster ovary (CHO) cells were grown in Dulbecco's modified Eagle's medium supplemented with 2 millimolar (mM) glutamine, 10% fetal calf serum, and antibiotics. In brief, 40,000 cells seeded on poly-L-lysine-coated glass coverslips (13 millimeter (mm) in diameter) in a 24-multiwell plate were transfected with 0.5 microgram (μg) pEGFP-SK4/0.5 μg mutant SK4, 1.2 μg dsRed-PIP4,5-kinase or with 1 μg SK1/SK2/SK3 together with pIRES-CD8 (0.3 μg) as a marker for transfection. Transfection was performed using TransIT-LT1 Transfection Reagent (Mirus Bio) according to the manufacturer's protocol. For electrophysiology, transfected cells were visualized approximately 40 hours after transfection with a Zeiss Axiovert 35 inverted florescence microscope.
Whole-cell patch-clamp recording: Voltage-clamp recordings were performed using the whole-cell configuration of the patch-clamp technique. Signals were amplified using an […] patch-clamp amplifier (Molecular Devices), sampled at 5 kHz and filtered at 2.4 kHz via a four pole Bessel low pass filter. Data were acquired using pClamp™ 10.5 software in conjunction with an Axon™ DigiData® 1440A interface (Molecular Devices). The patch pipettes were pulled from borosilicate glass (Harvard Apparatus) with a resistance of 3-5 megaohms (MΩ). The intracellular pipette solution contained 130 mM KCl, 5 mM EGTA, 10 mM HEPES, pH 7.3 (adjusted with KOH), and CaCl2 calculated for a final concentration of 1 μM free-Ca^2+, by MAXCHELATOR (WEBMAXC STANDARD) software, with sucrose added to adjust osmolarity to 290 mosM. The external solution (310 mosM) contained 140 mM NaCl, 4 mM KCl, 1.8 mM CaCl2, 1.2 mM MgCl2, 11 mM glucose, and 5.5 mM HEPES adjusted with NaOH to pH 7.3. CHO cells were held at −90 millivolt (mV) and SK4 K^+ currents were activated using a voltage ramp protocol from −100 mV to +60 mV for 150 milliseconds. Electrophysiological data analysis was performed using the Clampfit program (pClamp™ 10.5; Molecular Devices).
Some of the compounds were tested by comparing trace of WT SK4 channel currents in the absence and presence of 20 μM of the tested compound.

For assay [3], the system named is isolated guinea pig hearts. The assay can be described thus: Langendorff perfused isolated guinea pig hearts. As to conditions: 10 μM. The method, then:
(§1) Animals: Adult male Sprague-Dawley rats (n=56, 200-250 grams) and Guinea pigs (n=19, 400-700 grams) obtained from Envigo Laboratories (Jerusalem, Israel) were bred and grown in Ben-Gurion University of the Negev, Israel. Experiments in rats and guinea pigs were approved by the institutional ethics committee of Ben-Gurion University of the Negev, Israel (Protocol No. IL-24-05-2020(D) and were carried out in strict accordance with the Guide for the Care and Use of Laboratory Animals of the National Institutes of Health. The animals were kept under standardized conditions: 12:12 light: dark cycles at 20-24° C. and 30-70% relative humidity.
(§2) Perfused isolated hearts—Langendorff method: The isolated heart experiment setup was performed as described in Etzion et al., Am J Physiol Heart Circ Physiol (2008) 295, H1460-1469; and Mor et al., J Pharmacol Exp Ther (2013) 344, 59-67.]. Briefly, each animal was anesthetized with 2% isoflurane and an intraperitoneal (IP) injection of pentobarbital (60 mg/kg), followed by IP injection of Heparin (1000 U/kg). The heart was rapidly excised and placed into ice-cold Tyrode's buffer solution (consisted of 140 mM NaCl, 5.4 mM KCl, 0.5 mM MgCl2, 2.5 mM CaCl2, 0.39 mM NaH2PO4, 10 mM HEPES and 11 mM glucose, and titrated to pH 7.4 with NaOH). The aorta was cannulated and connected to a pre-heated (37° C.) and oxygenated perfusion system with Tyrode's solution while perfusion pressure was maintained at about 70 mmHg throughout the experiment. Prior to the experiment, the heart was left in Tyrode's solution to stabilize for 20 minutes for hemodynamic measurements, the left atrial appendage was excised, and a collapsed latex balloon was inserted into the left ventricle (LV) through the mitral valve. Once positioned, the balloon was filled with double distilled water reaching an end-diastolic pressure of 10-15 mmHg. Coronary perfusion pressure and LV pressure were recorded by a pressure amplifier (ETH-256C amplifier and B-100 probes, iWorx, NH, USA). Electrophysiological signals were recorded from the high right atrium (HRA) via a miniature quadripolar hook electrode (for simultaneous pacing and recording) and from the LV via a bipolar hook electrode. Electrical signals were filtered (1-2 kHz) and recorded by two voltage amplifiers (Model 3000, A-M Systems, Carlsberg, WA, USA). Signals were interfaced with a PC using an A/D converter (PCI-6024E, National Instruments, Austin TX, USA) and a custom-designed program developed with LabVIEW programing language (National Instruments, Austin, TX, USA) to control signal acquisition, data saving and off-line analysis. Measured physiological parameters during the experiment included perfusion flow (ml/minute) as a marker for coronary perfusion pressure, LV developed pressure, dP/dt±(representing the rate of rise of left ventricular pressure during isovolumetric contraction as a marker for LV contractility), heart rate, PR, and RR intervals. Tram-34 and BA6b9 were applied for a 20-minutes incubation period and physiological parameters were recorded.
(§3) Effective refractory period measurements: Using both custom-made quadripolar electrode inserted on the HRA and two bipolar electrodes (recording and pacing) on the LV, allowed measurement of the effective refractory period (ERP) at the atrial level (atrial effective refractory period, AERP), atrioventricular level (AVERP), and ventricular level (VERP). For ERP measurement, a programmed S1S2 stimulation protocol was performed using double diastolic threshold intensity. The protocol consisted of ten S1-S2 intervals of 150 milliseconds (ms) followed by an S1-S2 interval that was reduced by 1 ms each time, until pacing capture failed three consecutive times. AERP, AVERP, and VERP were measured and recorded prior and after exposure to the used inhibitor, either Tram-34 or BA6b9.

The subject of assay [4] is isolated rat hearts. The assay can be described thus: Langendorff perfused isolated rat hearts: electrophysiology and hemodynamics. The settings on record: 10 μM. The method, then: as §1, §2, §3
Assay [5] deals with T2, WT SK4 channels (Homo sapiens, UniProt O15554).
T2 construct: expressed in transfected cells; host or cells: CHO cells
The assay can be described thus: Inside-out macro-patch recording of WT SK4 channels in transfected CHO cells. Format: cell-based. The settings on record: 1 μM free-Ca2+. The method, then: Inside-out macro-patch recording: To measure the Ca^2+ concentration dependence for SK4 channel activation, CHO cells were co-transfected with plasmids encoding WT SK4 (1 μg) and WT CaM (1 μg) using the Lipofectamine reagent at a ratio of 1:2. The cells were transfected 48 hours prior to recordings. The patch pipettes were pulled and fire-polished with a MF-900 micro-forge (Narashige) to reach an internal diameter of […]. The resistance of the patch electrodes ranged from 2-3 MΩ. The pipette solution contained 135 mM KCl, 1 mM MgSO4, 0.91 mM CaCl2, and 10 mM HEPES at pH 7.3. The bath solution contained 135 mM KCl, 5 mM EGTA, and 10 mM HEPES at pH 7.3. EGTA was used to titer the different Ca^2+ concentration solutions, calculated using the software by C. Patton of Stanford University (http://maxchelator(dot)stanford(dot)edu/). Currents were recorded by 10 repetitive 1 second duration voltage ramps from −100 mV to +100 mV from a holding potential of 0 mV. The current amplitudes in response to increasing Ca^2+ concentrations were normalized to those obtained at a saturating Ca^2+ concentration (3 μM). Furthermore, to determine the Ca^2+ concentration dependence for activation in the presence of a tested compound, such as the exemplary compound BA6b9 (10 μM), the current amplitudes were normalized to those obtained at large maximal Ca^2+ concentration of 10 μM. For PIP2-dependent activation, PIP2 affinity to the SK4 channel was also examined in the inside-out configuration. The dose-response curve for PIP2 was measured with increasing concentrations of diC8-PIP2 in the presence of 1 μM Ca^2+. The diC8-PIP2 effect on the channel current was measured after complete depletion of the native PIP2 using sonicated poly-L-lysine (PLL) 50 μg/ml and a subsequent 2-minute washout. […] Apparent EC50 values for Ca^2+ or diC8-PIP2 were determined by fitting the data points to a standard dose-response curve Y=100/(1+10^(log EC(50)−X)*HillSlope).
The calcium dependence of the human SK4 K^+ channel in transfected CHO cells was characterized using inside-out macro-patches. The expressed currents were recorded in response to voltage ramps (−100 millivolt (mV) to +100 mV for 1 seconds) and by increasing the free-Ca^2+ concentrations applied to the internal face of the membrane. […]
To examine whether PIP2 is involved in the modulation of the SK4 channel, channel trafficking to the plasma membrane was increased by co-transfecting CHO cells with plasmid DNAs encoding for the channel and for wild type (WT) CaM. The resulting currents were recorded from inside-out macro-patches, where the intracellular solution contained a saturating concentration of 1 μM free-Ca^2+, as shown in FIG. 1B (see, black plot).

Assay [6] deals with WT SK2 channels (Rattus norvegicus, UniProt P70604). As to conditions: Zhang et al., Nat Chem Biol (2014); cited from earlier work.

Entries after “also recorded” stand apart in the source; their conditions may differ.

As for `O=c1[nH]c2ccc(Br)cc2[nH]1` [BA100, 5-bromo-1,3-dihydro-2H-benzo[d]imidazol-2-one], in assay [1], the “activation (increase) of WT SK4 current” value was determined as 28%. Besides, the “SK4 K+ channel modulating activity” value in assay [2] is listed as “activated; also recorded: activation; also recorded: Activator”.
For `O=c1[nH]c2cc(Cl)c(Cl)cc2[nH]1` [BA40, 5,6-dichloro-1,3-dihydro-2H-benzo[d]imidazol-2-one], in assay [1], the “activation (increase) of WT SK4 current” value was determined as 42%. Besides, the “activation of SK4 channel (fold)” value in assay [1] (representative trace) was “about 1.4 fold”. For the same compound, the “SK4 K+ channel modulating activity” value in assay [2] is on record as “activated; also recorded: activation; also recorded: Activator”.
For the compound `Clc1ccccc1C(c1ccccc1)(c1ccccc1)n1cccn1` [Tram-34, 1-[(2-chlorophenyl)diphenylmethyl]-1H-pyrazole, reference compound], in assay [3], the “AERP (effect)” value is reported as “significantly prolonged”; the “AVERP (effect)” value is listed as “significantly prolonged”; the “action potential activation current (atrial and ventricular pacing thresholds)” value is “Neither Tram-34 nor BA6b9 affected”; the “coronary flow (perfusion flow velocity)” value is reported as “no effect”. In assay [4], the “coronary flow (perfusion flow velocity)” value is reported as “significantly lowered”, the “left ventricular filling pressure (developed pressure)” value is “did not affect”, the “maximal pressure change in left ventricular contractility (dP/dt max)” value is on record as “reduces both parameters” and the “minimal pressure change in left ventricular contractility (dP/dt min)” value is given as “reduces both parameters”.
The term EC50 denotes the concentration at which the effect is half-maximal. Turning to `CCCCCCCC(=O)OC[C@H](COP(=O)(O)O[C@@H]1[C@H](O)[C@H](O)[C@@H](OP(=O)(O)O)[C@H](OP(=O)(O)O)[C@H]1O)OC(=O)CCCCCCC` [diC8-PIP2, dioctanoyl, phosphatidylinositol 4,5 bisphosphate, reference compound], the EC50 in assay [5] (internal application after PIP2 depletion by PLL, read-out: EC50 of activation of WT SK4 channels) is 154 nM; in assay [6] it was 1900 nM.
On to “poly-L-lysine hydrochloride [PLL, reference compound]”, for which, in assay [5] (50 μg/ml internal application, 1 minute), the “decrease (inhibition) of SK4 current” value is 68%.

The record behind these values is patent US20240366571A1, “MODULATORS OF SK4 POTASSIUM CHANNEL AND USES THEREOF” (Ramot at Tel-Aviv University Ltd., priority 2022, published 2024).
